Entries after “also recorded” stand apart in the source; their conditions may differ.
Key:
[1] = tested on: C57BL/6 mice; experiment: Acute (binge) alcohol ALD model; assay type: in vivo, mouse
Method: FIG. 15: UroA treatment reduces binge EtOH-induced ALD. (A) Acute alcohol model: Female wild type (C547BL/6) mice (n=6/group) were oral gavaged with alcohol (5 g/kg) at 0, 12 and 24 h. Mice were treated with Veh (0.25% CMC) or UroA (20 mg/kg) at 2, 14 and 26 h. Mice were euthanized at 32 h. (B) In vivo permeability was measured by determining serum levels of FITC-Dextran post 4 h oral gavage of FITC-dextran (C) Fecal albumin was measured using standard ELISA. (D-I) Indicated serum cytokines/markers levels were measured in serum using standard ELISA. (J) The levels of triglycerides (TGs) in liver were measured using ELISA methods. Error bars, ±SEM. Statistics were performed using 2 way ANOVA multiple comparisons. * p<0.05, ** p<0.01, *** p<0.001.
Treatment with UroA mitigates acute and chronic alcohol liver disease. To examine therapeutic efficacies of UroA in ALD, we adopted acute mouse model as developed by Gao B group (NIAAA) (BERTOLA et al., (2013) “Mouse model of chronic and binge ethanol feeding (the NIAAA model)” Nat Protoc. Vol. 8, No. 3, pp. 627-637). We tested therapeutic efficacies of UroA in this model.

[2] = target: T1, breast cancer resistance protein (BCRP) (Homo sapiens, UniProt Q9UNQ0); experiment: BCRP drug efflux activity; assay type: cell-based; details: colon cancer cell lines
T1 construct: endogenous in cells
T1 sequence (Q9UNQ0 whole entry): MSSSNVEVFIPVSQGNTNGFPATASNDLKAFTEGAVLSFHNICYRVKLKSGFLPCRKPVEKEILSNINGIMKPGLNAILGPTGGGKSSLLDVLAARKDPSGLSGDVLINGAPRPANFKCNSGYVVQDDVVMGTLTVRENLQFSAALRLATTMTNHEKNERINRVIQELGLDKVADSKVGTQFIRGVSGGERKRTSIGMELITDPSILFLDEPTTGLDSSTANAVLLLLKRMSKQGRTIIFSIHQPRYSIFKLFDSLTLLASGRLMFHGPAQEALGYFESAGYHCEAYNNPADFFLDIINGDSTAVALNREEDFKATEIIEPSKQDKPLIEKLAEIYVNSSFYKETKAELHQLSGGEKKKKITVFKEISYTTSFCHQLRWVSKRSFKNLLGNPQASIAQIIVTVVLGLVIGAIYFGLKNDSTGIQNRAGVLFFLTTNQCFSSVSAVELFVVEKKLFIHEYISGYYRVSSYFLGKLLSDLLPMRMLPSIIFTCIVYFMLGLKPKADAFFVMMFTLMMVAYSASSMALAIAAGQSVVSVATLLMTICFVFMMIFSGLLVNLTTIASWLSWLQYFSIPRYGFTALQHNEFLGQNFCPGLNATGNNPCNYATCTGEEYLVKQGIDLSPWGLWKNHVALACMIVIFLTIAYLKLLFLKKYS
Description: Therefore, blocking its activity and/or downregulating the expression of BCRP, P-gp could reverse the effect and sensitize the cancer cells.

[3] = tested on: T84 cells; experiment: EtOH-induced internalization of junction proteins; assay type: cell-based; details: 50 μM 1 h, then EtOH 40 mM 6 h
Description: The membrane and cytosolic fractions were isolated and evaluated for tight junction (TJ) and adherins junction (AJ) and desmosomes. […] (i.e., EtOH treatment alone has more cytosolic protein and EtOH+UroA has more membrane fraction) (FIG. 20).

[4] = tested on: C57BL/6 mice; experiment: Chronic low dose alcohol model; assay type: in vivo, mouse; details: 20 mg/kg orally 2 h prior to EtOH 3 g/kg twice daily, 5 days
Method: C57BL/6 mice (10 wk old age) were used in low dose chronic ALD models. Mice were treated with EtOH (3 g/kg) daily twice orally for 5 days at 3 g/kg, UroA (20 mg/kg) was given orally 2 h prior to EtOH treatment. Mice were euthanized on day 6 and analyzed the indicated parameters. Error bars, ±SEM. Statistics were performed using 2 way ANOVA multiple comparisons. * p<0.05, ** p<0.01, *** p<0.001.
C57BL/6 mice (n=5 per group) were treated with EtOH (3 g/kg) twice daily orally for 5 days. UroA (20 mg/kg) was given orally 2 h prior to EtOH treatment. We evaluated gut permeability and inflammation parameters both in serum and liver (FIG. 17).

[5] = tested on: HT29 cells; experiment: RNA-Seq analysis of HT29 cells; assay type: cell-based, human; details: 50 μM, 24 h
Method: RNA sequencing: Total RNA was isolated from HT29 cells treated with vehicle and UroA (50 μM) (n=3) for 24 h and RNA was isolated using Trizol based lysis followed by Qiagen RNeasy kits. The isolated RNA was checked for integrity (RIN>9.5) using the Agilent Bioanalyzer 2100 system (Agilent Technologies, Santa Clara, CA) and quantified using a Qubit fluorometric assay (Thermo Fisher Scientific, Waltham, MA). Poly-A enriched […] libraries were prepared following Illumina's TruSeq Stranded mRNA LT library preparation protocol (Illumina Inc., San Diego, CA) using 1 μg of total RNA. All 15 samples were individually barcoded and quantitated with the KAPA Library Quantitation Kit for Illumina Platforms (Kapa Biosystems, Wilmington, MA) in conjunction with an Agilent Bioanalyzer DNA 1000 analysis (Agilent Technologies, Santa Clara, CA) for fragment size determination. The average fragment size was approximately 300 bp. […] of the pooled libraries with 1% PhiX spike-in was loaded on one NextSeq 500/550 75 cycle High Output Kit v2 sequencing flow cell and sequenced on the Illumina NextSeq 500 sequencer. The quality of the 1×75 bp sequences was checked using […] Quality Control Tool for High Throughput Sequence Data”). Trimming was not necessary with the median quality score above 30 (error probability=0.001 or 1 base call in 1,000 is predicted to be incorrect) across the entire length of the read and the lower quantile above a score of 20 (error probability=0.01) at the end of the read where there is an expected decrease in quality. The raw reads for each sample were directly aligned to the Homo sapiens (hg38) reference genome assembly (hg38.fa) using tophat2 (version 2.0.13) (KIM et al. (2013) “TopHat2: accurate alignment of transcriptomes in the presence of insertions, deletions and gene fusions” Genome biology, Vol. 14, Article […]), generating alignment files in bam format. Optional parameters include-no-coverage-search and -library-type fr-firststrand. […] On average, 26 million reads were aligned per sample with a mean alignment rate of 97 percent. […]

O=c1oc2cc(O)ccc2c2ccc(O)cc12 [UroA, 3,8-dihydroxy-6H-dibenzo[b,d]pyran-6-one]
TJ protein (ZO-1) disruption at intestines ([1]; 20 mg/kg): protects against TJ protein (ZO-1) disruption | TG accumulation in liver ([1]; 20 mg/kg at 2, 14 and 26 h): reduced TG accumulation in liver | circulating serum ALT, AST levels ([1]; 20 mg/kg at 2, 14 and 26 h): reduced | systemic inflammation (serum IL-6, TNF-α, IL-1β, endotoxins) ([1]; 20 mg/kg at 2, 14 and 26 h): reduced | BCRP drug efflux activity [2]: decreased drug efflux activities; also recorded: reduced the BCRP activity | EtOH-induced internalization of membrane junction proteins to cytosol [3]: protected from EtOH-induced internalization | chronic low dose alcohol induced gut barrier dysfunction and inflammation [4]: protects against | Cyp1A1 expression (RNA-Seq) [5]: among the top 3 UroA upregulated genes | claudin 4 (Cldn4) expression (RNA-Seq) [5]: upregulated | heme oxygenase 1 (HMOX1 or HO1) expression (RNA-Seq) [5]: increased the expression

Reference: patent US12377069B2, “Compounds, compositions, methods of using, and methods for preparing compounds” (UNIVERSITY OF LOUISVILLE RESEARCH FOUNDATION, INC., priority 2018, dated 2025)
